Tests used:
ALK5 = molecular target: T1, ALK5 (Homo sapiens, UniProt P36897); test: ALK5 enzyme inhibition assay (casein substrate, 10 uM ATP, 33P-ATP, filter-binding; Reaction Biology Corp); format: biochemical
T1 construct: purchased Reaction Biology Corp (Malvern, Pa.)
T1 sequence (P36897 34-503): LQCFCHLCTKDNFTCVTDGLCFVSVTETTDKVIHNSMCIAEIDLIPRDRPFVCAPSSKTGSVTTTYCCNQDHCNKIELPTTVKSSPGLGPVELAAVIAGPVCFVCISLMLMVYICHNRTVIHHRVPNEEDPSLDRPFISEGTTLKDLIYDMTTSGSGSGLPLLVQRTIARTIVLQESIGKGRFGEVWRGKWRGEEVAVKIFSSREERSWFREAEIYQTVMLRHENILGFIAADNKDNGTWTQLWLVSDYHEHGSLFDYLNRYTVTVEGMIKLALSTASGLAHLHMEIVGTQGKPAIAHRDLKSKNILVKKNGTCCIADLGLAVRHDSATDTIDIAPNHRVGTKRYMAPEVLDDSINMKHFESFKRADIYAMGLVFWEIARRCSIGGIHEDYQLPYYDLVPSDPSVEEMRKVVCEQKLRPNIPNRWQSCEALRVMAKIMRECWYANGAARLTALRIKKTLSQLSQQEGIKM
Experimental: ALK5 enzyme inhibition assays were performed by Reaction Biology Corp (Malvern, Pa.). 1 mg/mL of peptide substrate (casein) and 10 uM ATP were prepared in a mixture of fresh reaction buffer. The kinase was delivered into the substrate solution which was gently mixed. Compounds in 100% DMSO were added to the kinase reaction mixture by Acoustic technology (Echo550; nanoliter range) and the mixture was incubated for 20 min at room temperature. ^33P-ATP (Specific activity 10 uCi/uL) was added into the reaction mixture to initiate the reaction and the reaction mixture was incubated for 2 hours at room temperature. Radioactivity was detected by filter-binding method and kinase activity data were expressed as the percent remaining kinase activity in test samples compared to vehicle (dimethyl sulfoxide) reactions. IC50 values and curve fits were obtained using Prism (GraphPad Software).

[1] = system: TGFβ/SMAD Signaling Pathway SBE reporter cell line; test: TGFb reporter assay in HEK293 SBE-LUC reporter cells (luciferase); format: cell-based; settings: Homo sapiens, key of the table says IC50, read-out: EC50 (the source's name)
In short: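 HEK293 SBE-luciferase reporter cells in MEM with 0.5% FBS were pretreated with compound for 5–6 h at 37 °C, then stimulated with TGFb (12.5 ng/mL stock added) for 18 h. Luminescence was read after luciferase substrate addition.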

[2] = system: HEK293 SBE-LUC reporter cells transfected to stably express full length human ASGR1; test: Cell reporter assay of anti-ASGR1-ALK5 inhibitor conjugates: TGFβ1-mediated luciferase expression; format: cell-based; settings: inhibition of TGFβ1-mediated luciferase expression, 6 h preincubation, human TGFβ1 1.6 ng/ml, further 18 h
Experimental: Anti-ASGR1 antibodies conjugated to an ALK5 inhibitor were tested via a cell reporter assay. Briefly, HEK293 SBE-LUC reporter cells transfected to stably express full length human ASGR1 were seeded in 96 well plates at 40,000 cells/well in an assay media of minimum essential media containing 0.5% fetal bovine serum, 1% nonessential amino acids, 1% sodium pyruvate and 1% Pen/Strep. Anti-ASGR1-ALK5 inhibitor conjugates and controls were added to wells in a dose titration ranging from 5 μM to 0.064 nM to HEK293 SBE-LUC and ASGR1-HEK293 SBE-LUC cells. After incubating for 6 hours at 37° C. in a 5% CO2 environment, human TGFβ 1 (PeproTech Inc.) was added to a final concentration of 1.6 ng/ml followed by an additional 18 hour incubation under the same conditions. Luciferase STEADY-GLO® reagent (Promega Corporation) was added at 70 μl/well and incubated with shaking for 10 minutes. Luciferase activity was determined by measuring luminescence with an ENVISION® Plate Reader (Perkin-Elmer Inc.). Data were fit with a four-parameter non-linear regression to calculate IC50 values using Prism Software v7.04 (GraphPad Inc.).

Work on `Cc1cccc(-c2nc(CNCCc3c(F)cccc3F)[nH]c2-c2ccc3ncnn3c2)n1` [Compound 60] yielded an IC50 (ALK5; Table 11) of 0.1 to 50 nM, an IC50 [1] of 0.1 to 10 nM and an IC50 [2] of 13.4 nM.

For `Cc1cccc(-c2nc(CNCc3ccccc3N(C)C)[nH]c2-c2ccc3ncnn3c2)n1` [Compound 25], the IC50 (ALK5; Table 11) was 100 to 1000 nM and the IC50 [1] was 0.1 to 10 nM.

Work on `COc1ccccc1CCNCc1nc(-c2cccc(C)n2)c(-c2ccc3nccnc3c2)[nH]1` [Compound 87] yielded an IC50 (ALK5; Table 11) of 0.1 to 50 nM and an IC50 [1] of 0.1 to 10 nM.

Compound `Cc1cccc(-c2nc(CN[C@H]3CCc4ccccc43)[nH]c2-c2ccn3ncnc3c2)n1` [Compound 1.34] has an IC50 (ALK5; Table 12) of 100 to 1000 nM and an IC50 [1] of 100 to 1000 nM.

`Cc1cccc(-c2nc(CNCCc3ccc(F)cc3)[nH]c2-c2ccc3ncnn3c2)n1` [Compound 62] showed an IC50 (ALK5; Table 11) of 100 to 1000 nM and an IC50 [1] of 0.1 to 10 nM.

For `Cc1cccc(-c2nc(CNCc3ccccc3Oc3cccnc3)[nH]c2-c2ccc3ncnn3c2)n1` [Compound 54], the IC50 (ALK5; Table 11) was 50 to 100 nM and the IC50 [1] was 0.1 to 10 nM.

With `Cc1cccc(-c2nc(CNCc3ccccc3C)[nH]c2-c2ccc3ncnn3c2)n1` [Compound 21] the IC50 (ALK5; Table 11) was 0.1 to 50 nM and the IC50 [1] was 0.1 to 10 nM.

Compound `Cc1cccc(-c2nc(CNc3ccc4c(c3)CC(N)C4)[nH]c2-c2ccc3ncnn3c2)n1` (stereo not shown) [Compound 1.24] has an IC50 (ALK5; Table 12) of 100 to 1000 nM and an IC50 [1] of 100 to 1000 nM.

In the case of `Cc1cccc(-c2nc(CNCc3cccc(C)c3-c3ccccc3)[nH]c2-c2ccc3ncnn3c2)n1` [Compound 48], the IC50 (ALK5; Table 11) is reported as 0.1 to 50 nM and the IC50 [1] is reported as 10 to 100 nM.

Work on `Cc1cccc(-c2nc(CNc3cccc4c3CNC4)[nH]c2-c2ccn3ncnc3c2)n1` [Compound 1.31] yielded an IC50 (ALK5; Table 12) of 100 to 1000 nM and an IC50 [1] of 100 to 1000 nM.

For `Cc1cccc(-c2nc(CNCc3ccccc3-c3ccc(CN)cc3)[nH]c2-c2ccc3ncnn3c2)n1` [Compound 34], the IC50 (ALK5; Table 11) was 100 to 1000 nM and the IC50 [1] was 100 to 1000 nM.

Work on `Cc1cccc(-c2nc(CNCCc3cccc(F)c3)[nH]c2-c2ccc3ncnn3c2)n1` [Compound 61] yielded an IC50 (ALK5; Table 11) of 0.1 to 50 nM and an IC50 [1] of 0.1 to 10 nM.

From US20210130473A1, “TGFßR1 INHIBITOR-ASGR ANTIBODY CONJUGATES AND USES THEREOF” (Silverback Therapeutics, Inc., priority 2019, published 2021)
